Source: patent US11230543B2, “Biaryl monobactam compounds and methods of use thereof for the treatment of bacterial infections” (priority 2015, dated 2022)
Counter-ions that a name gives are not always drawn.

Key:
[1] = test system: Pseudomonas aeruginosa expressing AmpC (CL5701); test: Antibiotic activity: growth inhibitory concentration (OD600), Pseudomonas aeruginosa CL5701; format: cell-based; conditions: lowest concentration inhibiting 95% of bacterial growth; in the presence of β lactamase inhibitor Relebactam 4 μg/mL; 35±2° C. for 22 hours; tested range 100 μM to 0.098 μM
In short: (§1)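 Clinical strains at ~2×10^5 CFU/mL in cation-adjusted Mueller-Hinton II broth, with relebactam at 4 μg/mL final; compounds 100 μM to 0.098 μM final. After 22 hours at 35±2° C, OD600 read; MITC95 is lowest concentration giving 95% growth inhibition.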

[2] = test system: Klebsiella pneumoniae expressing KPC-1 (CL6569); test: Antibiotic activity: growth inhibitory concentration (OD600), Klebsiella pneumoniae CL6569; format: cell-based; conditions: lowest concentration inhibiting 95% of bacterial growth; in the presence of β lactamase inhibitor Relebactam 4 μg/mL; 35±2° C. for 22 hours; tested range 100 μM to 0.098 μM
In short: as §1

Row | SMILES | PA_CL5701 MITC95 [1] [µM] | KP_CL6569 MITC95 [2] [µM]
1 | C[C@@H]1[C@H](NC(=O)/C(=N\O[C@@](C)(COc2ccc(-c3cn(CCCN)[n+](C)c3)cc2)C(=O)O)c2csc(N)n2)C(=O)N1S(=O)(=O)O.O=C([O-])C(F)(F)F [Example 25, 1-(3-aminopropyl)-4-(4-((S)-2-((((Z)-1-(2-aminothiazol-4-yl)-2-(((2R,3S)-2-methyl-4-oxo-1-sulfoazetidin-3-yl)amino)-2-oxoethylidene)amino)oxy)-2-carboxypropoxy)phenyl)-2-methyl-1H-pyrazol-2-ium 2,2,2-trifluoroacetate] | 3.125 | 0.3906
2 | CC1(C)[C@H](NC(=O)/C(=N\O[C@@H](COc2ccc(-c3cn(CCCN)nc3N)cc2)C(=O)O)c2csc(N)n2)C(=O)N1OS(=O)(=O)O [Example 27, (S)-3-(4-(3-amino-1-(3-aminopropyl)-1H-pyrazol-4-yl)phenoxy)-2-((((Z)-1-(2-aminothiazol-4-yl)-2-(((S)-2,2-dimethyl-4-oxo-1-(sulfooxy)azetidin-3-yl)amino)-2-oxoethylidene)amino)oxy)propanoic acid] | 6.25 | 0.7813
3 | C[C@H]1[C@H](NC(=O)/C(=N\O[C@@H](COc2ccc(-c3cn(CCCN)[n+](C)c3)cc2)C(=O)O)c2csc(N)n2)C(=O)N1S(=O)(=O)[O-] [Example 7, (2S,3S)-3-((Z)-2-(((S)-2-(4-(1-(3-aminopropyl)-2-methyl-1H-pyrazol-2-ium-4-yl)phenoxy)-1-carboxyethoxy)imino)-2-(2-aminothiazol-4-yl)acetamido)-2-methyl-4-oxoazetidine-1-sulfonate] | 12.5 | 1.563
4 | C[n+]1ccc(-c2ccc(OC[C@H](O/N=C(\C(=O)N[C@@H]3C(=O)N(OS(=O)(=O)[O-])C3(C)C)c3csc(N)n3)C(=O)O)cc2)cc1NCCCN [Example 63, (S)-3-((Z)-2-(((S)-2-(4-(2-((3-aminopropyl)amino)-1-methylpyridin-1-ium-4-yl)phenoxy)-1-carboxyethoxy)imino)-2-(2-aminothiazol-4-yl)acetamido)-2,2-dimethyl-4-oxoazetidin-1-yl sulfate] | 6.25 | 0.3906
5 | CC1(C)[C@H](NC(=O)/C(=N\O[C@@H](COc2ccc(-c3cnc(NCCN)nc3)cc2)C(=O)O)c2csc(N)n2)C(=O)N1OS(=O)(=O)O [Example 70, (S)-3-(4-(2-((2-aminoethyl)amino)pyrimidin-5-yl)phenoxy)-2-((((Z)-1-(2-aminothiazol-4-yl)-2-(((S)-2,2-dimethyl-4-oxo-1-(sulfooxy)azetidin-3-yl)amino)-2-oxoethylidene)amino)oxy)propanoic acid] | 6.25 | 0.7813
6 | C[n+]1cc(-c2ccc(OC[C@@](C)(O/N=C(\C(=O)N[C@@H]3C(=O)N(OS(=O)(=O)O)C3(C)C)c3nc(N)sc3Cl)C(=O)O)cc2)cn1CCCN [Example 51B, (S)-3-((Z)-2-(2-amino-5-chlorothiazol-4-yl)-2-((((R)-1-(4-(1-(3-aminopropyl)-2-methyl-1H-pyrazol-2-ium-4-yl)phenoxy)-2-carboxypropan-2-yl)oxy)imino)acetamido)-2,2-dimethyl-4-oxoazetidin-1-yl sulfate] | 25 | 6.25
7 | CC1(C)[C@H](NC(=O)/C(=N\O[C@@H](COc2ccc(-c3cn(C[C@@H](O)CN)[n+](CC4CNC4)c3)cc2)C(=O)O)c2csc(N)n2)C(=O)N1OS(=O)(=O)[O-] [Example 52, (S)-3-((Z)-2-(((S)-2-(4-(1-((S)-3-Amino-2-hydroxypropyl)-2-(azetidin-3-ylmethyl)-1H-pyrazol-2-ium-4-yl)phenoxy)-1-carboxyethoxy)imino)-2-(2-aminothiazol-4-yl)acetamido)-2,2-dimethyl-4-oxoazetidin-1-yl sulfate] | 1.563 | 0.1953
8 | C[n+]1cc(-c2ccc(OC[C@@H](CO)O/N=C(\C(=O)N[C@@H]3C(=O)N(OS(=O)(=O)O)C3(C)C)c3csc(N)n3)cc2)ccc1NCCN [Example 89, (S)-3-((Z)-2-((((R)-1-(4-(6-((2-aminoethyl)amino)-1-methylpyridin-1-ium-3-yl)phenoxy)-3-hydroxypropan-2-yl)oxy)imino)-2-(2-aminothiazol-4-yl)acetamido)-2,2-dimethyl-4-oxoazetidin-1-yl sulfate] | 50 | 1.563
9 | CC1(C)[C@H](NC(=O)/C(=N\O[C@@H](COc2ccc(-c3cn(CCCN)c(N)n3)cc2)C(=O)O)c2csc(N)n2)C(=O)N1OS(=O)(=O)O.O=C(O)C(F)(F)F [Example 31, 3-(2-amino-4-(4-((S)-2-((((Z)-1-(2-aminothiazol-4-yl)-2-(((S)-2,2-dimethyl-4-oxo-1-(sulfooxy)azetidin-3-yl)amino)-2-oxoethylidene)amino)oxy)-2-carboxyethoxy)phenyl)-1H-imidazol-1-yl)propan-1-aminium 2,2,2-trifluoroacetate] | 3.125 | 0.3906
10 | C[n+]1cc(-c2ccc(OCCO/N=C(\C(=O)N[C@@H]3C(=O)N(OS(=O)(=O)O)C3(C)C)c3csc(N)n3)cc2)cn1CCCN [Example 4, (S,Z)-3-(2-((2-(4-(1-(3-aminopropyl)-2-methyl-1H-pyrazol-2-ium-4-yl)phenoxy)ethoxy)imino)-2-(2-aminothiazol-4-yl)acetamido)-2,2-dimethyl-4-oxoazetidin-1-yl sulfate] | 25 | 1.281
11 | CC1(C)[C@H](NC(=O)/C(=N\O[C@@H](COc2ccc(-c3ccnc(NCCCN)c3)cc2)C(=O)O)c2csc(N)n2)C(=O)N1OS(=O)(=O)O [Example 64, (S)-3-((Z)-2-(((S)-2-(4-(2-((3-aminopropyl)amino)pyridin-4-yl)phenoxy)-1-carboxyethoxy)imino)-2-(2-aminothiazol-4-yl)acetamido)-2,2-dimethyl-4-oxoazetidin-1-yl sulfate] | 12.5 | 1.563
12 | CC1(C)[C@H](NC(=O)/C(=N\OC(COc2ccc(C(N)CNC3=NCCN3)cc2)C(=O)O)c2csc(N)n2)C(=O)N1OS(=O)(=O)O (stereo in doubt) [Example 59, (R)-3-(4-((S)-1-amino-2-((4,5-dihydro-1H-imidazol-2-yl)amino)ethyl)phenoxy)-2-((((Z)-1-(2-aminothiazol-4-yl)-2-(((S)-2,2-dimethyl-4-oxo-1-(sulfooxy)azetidin-3-yl)amino)-2-oxoethylidene)amino)oxy)propanoic acid] | 12.5 | 3.125
13 | CC1(C)[C@H](NC(=O)/C(=N\O[C@@H](COc2ccc(Nc3cc[n+](CC4CNC4)cc3)nc2)C(=O)O)c2csc(N)n2)C(=O)N1OS(=O)(=O)[O-] [Example 108, (S)-3-((Z)-2-(2-aminothiazol-4-yl)-2-(((S)-2-((6-((1-(azetidin-3-ylmethyl)pyridin-1-ium-4-yl)amino)pyridin-3-yl)oxy)-1-carboxyethoxy)imino)acetamido)-2,2-dimethyl-4-oxoazetidin-1-yl sulfate] | 12.5 | 0.7813
14 | CC1(C)[C@H](NC(=O)/C(=N\O[C@@H](COc2ccc(-c3cn(CCCN)[n+](CCCN)c3)cc2)C(=O)O)c2csc(N)n2)C(=O)N1OS(=O)(=O)[O-] [Example 54, (S)-3-((Z)-2-(2-aminothiazol-4-yl)-2-(((S)-2-(4-(1,2-bis(3-aminopropyl)-1H-pyrazol-2-ium-4-yl)phenoxy)-1-carboxyethoxy)imino)acetamido)-2,2-dimethyl-4-oxoazetidin-1-yl sulfate] | 1.563 | 0.09766
15 | C[n+]1cc(-c2ccc(OC[C@H](O/N=C(\C(=O)N[C@@H]3C(=O)N(OS(=O)(=O)[O-])C3(C)C)c3csc(N)n3)C(=O)O)cc2)ccc1C(=O)NC(CN)CN [Example 80, (S)-3-((Z)-2-(2-aminothiazol-4-yl)-2-(((S)-1-carboxy-2-(4-(6-((1,3-diaminopropan-2-yl)carbamoyl)-1-methylpyridin-1-ium-3-yl)phenoxy)ethoxy)imino)acetamido)-2,2-dimethyl-4-oxoazetidin-1-yl sulfate] | 3.125 | 0.1953
16 | CCOC(=O)[C@H](COc1ccc(-c2cn(CCCN)[n+](C)c2)cc1)O/N=C(\C(=O)N[C@@H]1C(=O)N(OS(=O)(=O)[O-])C1(C)C)c1csc(N)n1 [Example 115, (S)-3-((Z)-2-((((S)-3-(4-(1-(3-aminopropyl)-2-methyl-1H-pyrazol-2-ium-4-yl)phenoxy)-1-ethoxy-1-oxopropan-2-yl)oxy)imino)-2-(2-aminothiazol-4-yl)acetamido)-2,2-dimethyl-4-oxoazetidin-1-yl sulfate] | 100 | 12.5
17 | C[n+]1cc(-c2ccc(OC[C@H](O/N=C(\C(=O)N[C@@H]3C(=O)N(OS(=O)(=O)O)C3(C)C)c3csc(N)n3)C(=O)O)cc2F)cn1CC(O)CN.O=CO (stereo partly drawn) [Example 44, (3S)-3-((Z)-2-(((1S)-2-(4-(1-(3-amino-2-hydroxypropyl)-2-methyl-1H-pyrazol-2-ium-4-yl)-3-fluorophenoxy)-1-carboxyethoxy)imino)-2-(2-aminothiazol-4-yl)acetamido)-2,2-dimethyl-4-oxoazetidin-1-yl sulfate compound with formic acid (1:1)] | 3.125 | 0.1953
18 | CC1(C)[C@H](NC(=O)/C(=N\O[C@@H](COc2ccc(-n3cc[n+](CCCN)c3)nc2)C(=O)O)c2csc(N)n2)C(=O)N1OS(=O)(=O)[O-] [Example 36, (S)-3-((Z)-2-(((S)-2-((6-(3-(3-aminopropyl)-1H-imidazol-3-ium-1-yl)pyridin-3-yl)oxy)-1-carboxyethoxy)imino)-2-(2-aminothiazol-4-yl)acetamido)-2,2-dimethyl-4-oxoazetidin-1-yl sulfate compound with 2,2,2-trifluoroacetic acid (1:1)] | 6.25 | 0.7813
